Reference: US20060069132A1, “Azolecarboxamide herbicides” (priority 2004, published 2006)
Read-outs that look alike come from different tables or passages of the source.

Experiments:
velvetleaf = experiment: Test B pre-/postemergence herbicide test; format: in vivo, Abutilon theophrasti
Procedure, shortened: (§1)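 Test chemicals in a non-phytotoxic solvent mixture with surfactant were applied preemergence to seeded species and postemergence to plants 2-18 cm tall (1- to 4-leaf stage); rice and barnyardgrass were also tested in a flooded paddy at the 2-leaf stage. Visual rating versus controls after 13-15 days in greenhouse, scale 0 (no effect) to 100 (complete control).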

morningglory = experiment: Test B pre-/postemergence herbicide test; format: in vivo, Ipomoea coccinea; conditions: for pest or weed control at 500 g/ha: 500 g ai/ha
Procedure, shortened: (§2)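 Formulation: non-phytotoxic solvent mix with surfactant. Timing: preemergence on seed and postemergence on 2–18 cm plants, applied concurrently. Readout after 13–15 d greenhouse: visual 0–100 control rating against controls.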

[1] = tested on: small flower umbrella sedge; experiment: Test B flooded paddy test; format: in vivo, Cyperus difformis; conditions: Cyperus difformis, 336 h, 1000 g ai/ha, scale 0 to 100 (0 no effect, 100 complete control), read-out: Sedge, Umbrella plant response rating
Procedure, shortened: (§3)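 Scale 0–100: zero equals no visible effect, 100 complete control, judged by eye relative to controls. Timing: 13 to 15 days in greenhouse post-treatment. Growth stage at spraying: two leaves (paddy) or one to four leaves, 2–18 cm (postemergence).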

corn = experiment: Test B pre-/postemergence herbicide test; format: in vivo, Zea mays
Procedure, shortened: as §1

large crabgrass = experiment: Test B pre-/postemergence herbicide test; format: in vivo, Digitaria sanguinalis; conditions: for pest or weed control at 500 g/ha: 500 g ai/ha
Procedure, shortened: as §1

wild oat = experiment: Test B postemergence herbicide test; format: in vivo, Avena fatua; conditions: Avena fatua, post-emergence, 336 h, read-out: Oat, Wild plant response rating
Procedure, shortened: (§4)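 Postemergence plants were sprayed with formulated test chemicals at 2 to 18 cm height (1- to 4-leaf stage); paddy species were grown to the 2-leaf stage. After 13 to 15 days in a greenhouse, injury was rated visually against untreated controls on a 0–100 scale (0 = no effect, 100 = complete control).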

Surinam grass = experiment: Test B pre-/postemergence herbicide test; format: in vivo, Urochloa decumbens; conditions: for pest or weed control at 500 g/ha: 500 g ai/ha
Procedure, shortened: as §1

barnyardgrass [2] = experiment: Test B pre-/postemergence herbicide test; format: in vivo, Echinochloa crus-galli; conditions: for pest or weed control at 500 g/ha: 500 g ai/ha
Procedure, shortened: as §2

cocklebur = experiment: Test B pre-/postemergence herbicide test; format: in vivo, Xanthium strumarium; conditions: for pest or weed control at 500 g/ha: 500 g ai/ha
Procedure, shortened: as §2

lambsquarters = experiment: Test B pre-/postemergence herbicide test; format: in vivo, Chenopodium album; conditions: for pest or weed control at 500 g/ha: 500 g ai/ha
Procedure, shortened: as §1

blackgrass = experiment: Test B postemergence herbicide test; format: in vivo, Alopecurus myosuroides; conditions: Alopecurus myosuroides, post-emergence, 336 h, read-out: Blackgrass plant response rating
Procedure, shortened: as §3

ducksalad = experiment: Test B flooded paddy test; format: in vivo, Heteranthera limosa; conditions: Heteranthera limosa, 336 h, 1000 g ai/ha, scale 0 to 100 (0 no effect, 100 complete control), read-out: Ducksalad plant response rating
Procedure, shortened: as §3

wheat = experiment: Test B postemergence herbicide test; format: in vivo, Triticum aestivum; conditions: Triticum aestivum, post-emergence, 336 h, read-out: Wheat plant response rating
Procedure, shortened: as §4

pigweed = experiment: Test B pre-/postemergence herbicide test; format: in vivo, Amaranthus retroflexus; conditions: for pest or weed control at 500 g/ha: 500 g ai/ha
Procedure, shortened: as §1

barnyardgrass [3] = experiment: Test B flooded paddy test; format: in vivo, Echinochloa crus-galli; conditions: Echinochloa crus-galli, 336 h, 1000 g ai/ha, scale 0 to 100 (0 no effect, 100 complete control), read-out: Barnyardgrass plant response rating
Procedure, shortened: as §3

rice = experiment: Test B flooded paddy test; format: in vivo, Oryza sativa; conditions: Oryza sativa, 336 h, 1000 g ai/ha, scale 0 to 100 (0 no effect, 100 complete control), read-out: Rice plant response rating
Procedure, shortened: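 Paddy species grown to the 2-leaf stage under flooding; blackgrass sprayed postemergence at 2–18 cm (1- to 4-leaf stage). Plants kept in a greenhouse for 13 to 15 days, then visually rated against controls on 0 (no effect) to 100 (complete control).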

[4] = 125 g ai/ha, 0 is no effect, 100 is complete control, preemergence
[5] = 125 g ai/ha, visual rating, scale 0 (no effect) to 100 (complete control)
[6] = postemergence, 500 g ai/ha, scale 0 to 100, 0 is no effect, 100 is complete control

Structure (SMILES): CCn1nc2c(c1C(=O)Nc1cc(C(=O)N(C)C)ccc1F)CCC2(C)C [Compound 352, N-[5-[(dimethylamino)carbonyl]-2-fluorophenyl]-2-ethyl-2,4,5,6-tetrahydro-6,6-dimethyl-3-cyclopentapyrazolecarboxamide]
- Plant response rating (0 to 100 scale), Velvetleaf (velvetleaf; [4]): 30
- pest or weed control at 125 g/ha (velvetleaf; Abutilon theophrasti, post-emergence, 336 h, 125 g ai/ha, visual rating, scale 0 (no effect) to 100 (complete control), read-out: Velvetleaf plant response rating): 10%
- pest or weed control at 500 g/ha (velvetleaf; Abutilon theophrasti, post-emergence, 336 h, postemergence, 500 g ai/ha, scale 0 to 100, 0 is no effect, 100 is complete control, read-out: Velvetleaf plant response rating): 60%
- Plant response rating (0 to 100 scale), Morningglory (morningglory; [4]): 0
- pest or weed control at 125 g/ha (morningglory; Ipomoea, post-emergence, 336 h, 125 g ai/ha, visual rating, scale 0 (no effect) to 100 (complete control), read-out: Morningglory plant response rating): 10%
- pest or weed control at 500 g/ha (morningglory; Ipomoea, post-emergence, 336 h, postemergence, scale 0 to 100, 0 is no effect, 100 is complete control, read-out: Morningglory plant response rating): 60%
- pest or weed control at 500 g/ha (morningglory; Ipomoea, pre-emergence, 336 h, visual rating, 0 = no effect, 100 = complete control, read-out: Plant response rating, Morningglory): 0%
- pest or weed control at 1000 g/ha [1]: 80%
- Plant response rating (0 to 100 scale), Corn (corn; [4]): 60
- plant injury at 125 g/ha (corn; Zea mays, post-emergence, 125 g ai/ha, visual rating, scale 0 (no effect) to 100 (complete control), read-out: Corn plant response rating): 0%
- plant injury at 500 g/ha (corn; Zea mays, post-emergence, postemergence, 500 g ai/ha, scale 0 to 100, 0 is no effect, 100 is complete control, read-out: Corn plant response rating): 10%
- Corn plant response rating (crop injury, 0 = no effect, 100 = complete kill) at 500 g/ha (corn; Zea mays, pre-emergence, 500 g ai/ha, visual rating, 0 = no effect, 100 = complete control): 80%
- Plant response rating (0 to 100 scale), Crabgrass, Large (large crabgrass; [4]): 90
- pest or weed control at 125 g/ha (large crabgrass; Digitaria sanguinalis, post-emergence, 125 g ai/ha, visual rating, scale 0 (no effect) to 100 (complete control), read-out: Crabgrass, Large plant response rating): 20%
- pest or weed control at 500 g/ha (large crabgrass; Digitaria sanguinalis, post-emergence, postemergence, scale 0 to 100, 0 is no effect, 100 is complete control, read-out: Crabgrass, Large plant response rating): 20%
- pest or weed control at 500 g/ha (large crabgrass; Digitaria sanguinalis, pre-emergence, visual rating, 0 = no effect, 100 = complete control, read-out: Plant response rating, Crabgrass, Large): 100%
- pest or weed control at 125 g/ha (wild oat; [5]): 0%
- pest or weed control at 500 g/ha (wild oat; [6]): 20%
- Plant response rating (0 to 100 scale), Surinam Grass (Surinam grass; [4]): 90
- pest or weed control at 125 g/ha (Surinam grass; Urochloa decumbens, post-emergence, 125 g ai/ha, visual rating, scale 0 (no effect) to 100 (complete control), read-out: Surinam Grass plant response rating): 10%
- pest or weed control at 500 g/ha (Surinam grass; Urochloa decumbens, post-emergence, postemergence, scale 0 to 100, 0 is no effect, 100 is complete control, read-out: Surinam Grass plant response rating): 40%
- pest or weed control at 500 g/ha (Surinam grass; Urochloa decumbens, pre-emergence, visual rating, 0 = no effect, 100 = complete control, read-out: Plant response rating, Surinam Grass): 100%
- Plant response rating (0 to 100 scale), Barnyardgrass (barnyardgrass [2]; [4]): 70
- pest or weed control at 125 g/ha (barnyardgrass [2]; Echinochloa crus-galli, post-emergence, 125 g ai/ha, visual rating, scale 0 (no effect) to 100 (complete control), read-out: Barnyardgrass plant response rating): 0%
- pest or weed control at 500 g/ha (barnyardgrass [2]; Echinochloa crus-galli, post-emergence, postemergence, scale 0 to 100, 0 is no effect, 100 is complete control, read-out: Barnyardgrass plant response rating): 10%
- pest or weed control at 500 g/ha (barnyardgrass [2]; Echinochloa crus-galli, pre-emergence, visual rating, 0 = no effect, 100 = complete control, read-out: Plant response rating, Barnyardgrass): 90%
- Plant response rating (0 to 100 scale), Cocklebur (cocklebur; [4]): 0
- pest or weed control at 125 g/ha (cocklebur; Xanthium strumarium, post-emergence, 125 g ai/ha, visual rating, scale 0 (no effect) to 100 (complete control), read-out: Cocklebur plant response rating): 0%
- pest or weed control at 500 g/ha (cocklebur; Xanthium strumarium, post-emergence, postemergence, scale 0 to 100, 0 is no effect, 100 is complete control, read-out: Cocklebur plant response rating): 10%
- pest or weed control at 500 g/ha (cocklebur; Xanthium strumarium, pre-emergence, visual rating, 0 = no effect, 100 = complete control, read-out: Plant response rating, Cocklebur): 0%
- Plant response rating (0 to 100 scale), Lambsquarters (lambsquarters; [4]): 90
- pest or weed control at 125 g/ha (lambsquarters; Chenopodium album, post-emergence, 336 h, 125 g ai/ha, visual rating, scale 0 (no effect) to 100 (complete control), read-out: Lambsquarters plant response rating): 10%
- pest or weed control at 500 g/ha (lambsquarters; Chenopodium album, post-emergence, 336 h, postemergence, scale 0 to 100, 0 is no effect, 100 is complete control, read-out: Lambsquarters plant response rating): 60%
- pest or weed control at 500 g/ha (lambsquarters; Chenopodium album, pre-emergence, 336 h, visual rating, 0 = no effect, 100 = complete control, read-out: Plant response rating, Lambsquarters): 100%
- pest or weed control at 125 g/ha (blackgrass; [5]): 10%
- pest or weed control at 500 g/ha (blackgrass; [6]): 30%
- pest or weed control at 1000 g/ha (ducksalad): 90%
- plant injury at 125 g/ha (wheat; [5]): 10%
- plant injury at 500 g/ha (wheat; [6]): 20%
- Plant response rating (0 to 100 scale), Pigweed (pigweed; [4]): 50
- pest or weed control at 125 g/ha (pigweed; Amaranthus retroflexus, post-emergence, 336 h, 125 g ai/ha, visual rating, scale 0 (no effect) to 100 (complete control), read-out: Pigweed plant response rating): 10%
- pest or weed control at 500 g/ha (pigweed; Amaranthus retroflexus, post-emergence, 336 h, postemergence, scale 0 to 100, 0 is no effect, 100 is complete control, read-out: Pigweed plant response rating): 60%
- pest or weed control at 500 g/ha (pigweed; Amaranthus retroflexus, pre-emergence, 336 h, visual rating, 0 = no effect, 100 = complete control, read-out: Plant response rating, Pigweed): 70%
- pest or weed control at 1000 g/ha (barnyardgrass [3]): 90%
- plant injury at 1000 g/ha (rice): 70%
